The format of this data set is physicochemical. The note with it: pH 3. The method, then:
The amount of anthocyanin was confirmed using a spectrophotometer to confirm the stability of the complex prepared in Example 1 over time. 40 ml of the anthocyanin-alginic acid complex was centrifuged at 13000 rpm for 30 minutes, and the precipitate was dispersed in PBS (pH 3 or pH 7.4). In addition, anthocyanin was prepared by dissolving thereof in PBS (pH 3 or pH 7.4). The absorbance of the complex and anthocyanin dispersed in PBS (pH 3 or pH 7.4) was measured with a spectrophotometer at each wavelength band of 513 nm or 520 nm, respectively, and the change in the absorbance value of anthocyanin was observed.

Consider anthocyanin, for which the “stability (in words)” value is given as “stable”.

Values taken from patent US12507720B2, “Use of anthocyanin-anionic polysaccharide complex for preventing or treating influenza virus A infection” (JBKLAB CO., LTD., priority 2019, dated 2025).
